Test results as given in US20050009772A1, “Methods and compositions for the treatment of glaucoma and other retinal diseases” (The Regents of the University of California, priority 2003, published 2005).
“Also recorded” adds a separate entry of the source.

What was measured:
[1] = tested on: HSP72; assay: Immunohistochemical staining for HSP72 on retinal sections after GGA administration (Experiment 1); type: in vivo, rat
Experimental: (§1) Three experiments are summarized here, and details are provided in the subsequent sections. […] For Western blotting, twelve rats were equally divided into 6 groups. […] Enriched RGC fraction was harvested from 2 retinas of each group and used for Western blot analysis. The same experiment for isolation of RGCs and Western blotting was repeated with the other 2 retinas-from each group.
Animals were deeply anesthetized with intramuscular injections of 0.8 ml/kg of a cocktail of 5 ml ketamine (100 mg/ml), 2.5 ml xylazine (20 mg/ml), 1.0 ml acepromazine (10 mg/ml), and 1.5 ml normal saline. Then they were transcardially perfused with 4% paraformaldehyde in 0.1 M phosphate buffer. The enucleated eyeballs were immersed in fixative for 1 hour, bisected and post-fixed overnight. The eyes were embedded in paraffin and sectioned at a four-μm thickness along the vertical meridian through the optic nerve head. After deparaffinization and hydration, a species-specific Vectastain ABC kit (Vector Laboratories, Inc., Burlingame, Calif.) was chosen to match the species of primary antibody and the manufacturer's procedures were followed. The tissue sections were incubated with blocking serum solution in PBS for 1 hour. This was followed by incubation with primary antibody at 4° C overnight. The antibodies were mouse monoclonal antibody against HSP72 (1:500; StressGen Biotechnologies Corp., Victoria, British Columbia, Canada), goat polyclonal antibody against HSP72 (1:1000; Santa Cruz Biotechnology, Inc., Santa Cruz, Calif.) or rat monoclonal antibody against HSC70 (1:200; StressGen). Antigen-antibody complexes were detected by an avidin-biotin-peroxidase technique (Vectastain ABC Kit; Vector Laboratories). Diaminobenzidine (DAB) was used to produce a brown color in the target tissue and the slides were permanently mounted. As a negative control, alternate retinal section was incubated with blocking solution by replacing the primary antibody or with anti-rabbit secondary antibody by replacing the original secondary antibody.

[2] = tested on: TUNEL positive cells in the RGCL; assay: TUNEL analysis of RGCL after 1 week of IOP elevation (Experiment 3); type: in vivo, rat
Experimental: Experiment 3 was performed to investigate the inhibition of apoptosis with GGA administration after 1 week of IOP elevation (n=56).
Rats were anesthetized with intramuscular injections of 0.8 ml/kg of the anesthetic cocktail described above. […] At the end of the procedure, Tobrex ophthalmic ointment (tobramycin 0.3%; Alcon, Fort Worth, Tex.) was applied topically. Five days after intracameral injection of India ink, a dark band at the limbus was noted due to the aggregation of carbon particles in the trabecular meshwork.38 After anesthesia, approximately 200 laser burns were delivered ab externo to the pigmented trabecular band at laser settings of 200 μm diameter, 200 mW power and 0.2 seconds duration. Three weeks after the first laser treatment, another trabecular laser photocoagulation was performed without further injection of ink.
Four-μm thick paraffin embedded sections along the vertical meridian of the optic nerve head were collected and a minimum of 6 retinal sections (8 μm apart) per eyeball was used for counting the number of TUNEL positive cells in the RGCL. Only full length and undamaged retinal sections without oblique orientation were used. The procedures described in the ApopTag Peroxidase In Situ Apoptosis Detection Kit (Intergen Co., Purchase, N.Y.) were followed and diaminobenzidine (Sigma, St. Louis, Mo.) was used as a color substrate. Counting was performed by two masked investigators with light microscopy, and averaged.

[3] = tested on: optic nerve axons; assay: Grading of optic nerve injury in rat glaucoma model (Experiment 2); type: in vivo
Experimental: GGA was then given twice a week at the same dose until euthanasia. Sustained elevation of intraocular pressure (IOP) was maintained by performing trabecular laser photocoagulation three weeks after the first photocoagulation. […] IOP and body weight were measured once a week. After 5 weeks of IOP elevation, the number of retrogradely labeled RGCs with dextran tetramethylrhodamine (DTMR) was counted (n=53). The grading of optic nerve injury and the counting of cresyl violet-stained cells in the retinal ganglion cell layer (RGCL) was also performed (n=54).
Rats were anesthetized with intramuscular injections of 0.8 ml/kg of the anesthetic cocktail described above. A previously published procedure was modified to produce chronic moderately elevated IOP unilaterally, while the untreated contralateral eye served as the comparative control.40 Animals were injected intracamerally with 10 μl of 35% India ink (Becton Dickinson, Cockeysville, Md.) in 0.01 M PBS after removing a similar volume of aqueous. At the end of the procedure, Tobrex ophthalmic ointment (tobramycin 0.3%; Alcon, Fort Worth, Tex.) was applied topically. Five days after intracameral injection of India ink, a dark band at the limbus was noted due to the aggregation of carbon particles in the trabecular meshwork.38 After anesthesia, approximately 200 laser burns were delivered ab externo to the pigmented trabecular band at laser settings of 200 μm diameter, 200 mW power and 0.2 seconds duration. Three weeks after the first laser treatment, another trabecular laser photocoagulation was performed without further injection of ink.
To examine the effect on RGC axons, optic nerve injury was evaluated with an established method.41 After 5 weeks of IOP elevation, deeply anesthetized animals were perfused with a solution of 4% paraformaldehyde and 1% glutaraldehyde. Optic nerve segments […] behind the globe were dissected, washed, postfixed with 5% glutaraldehyde, dehydrated, and embedded. One μm-thick sections were cut and stained with 1% toluidine blue. Optic nerve cross sections were examined under light microscopy and assessed by three independent masked observers. A graded scale of optic nerve injury ranging from 1 (normal) to 5 (total degeneration) was used. Data obtained from three observers were averaged and presented as mean ±SEM.

[4] = tested on: HSC70; assay: Western blot for HSC70 in enriched RGC fraction after systemic administration of GGA (Experiment 1); type: in vivo, rat; details: GGA 200 mg/kg daily i.p. 1, 3, 7 days vs control groups
Experimental: as §1
GGA was a gift from Esai Co, Ltd (Tokyo, Japan). […] Saline-vehicle was prepared and administered in the same fashion in vehicle-treated control groups.
A previously described method was modified to partially purify RGCs from other retinal cells in rat retinas.38 Briefly, two dissected rat retinas from each subgroup were washed in 2.5 ml of calcium- and magnesium-free phosphate buffered saline (PBS) at pH 7.4, and incubated in 1.25 ml of PBS containing 0.5 mg/ml trypsin and 0.01% deoxyribonuclease for 15 minutes at 37° C. […] The cells were then resuspended in 400 μl of MEM buffer, and the protein concentration in the cell suspension was measured with a bicinchoninic acid (BCA) protein assay kit (Pierce, Rockford, Ill.).
The membrane was blocked by incubation in 0.1% Tween-20 in 100 mM Tris-buffered saline containing 10% nonfat dried milk for 1 hour. […] The immunoreactive bands were detected by chemiluminescence with an enhanced chemiluminescence Western blot reagent (Amersham Pharmacia).

Geranylgeranylacetone [GGA]
immunoreactivity of HSP72 in other retinal layers ([1]; GGA i.p. 7 days): No remarkable change
immunoreactivity of HSP72 in cells in the RGCL (immunohistochemical staining) ([1]; GGA i.p. 7 days vs vehicle-treated): Increased immunoreactivity of HSP72
levels of HSP72 in RGCs (immunohistochemical staining) ([1]; oral daily dose of GGA for one week, assayed one week after last oral administration): increased levels of HSP72
inhibition of cell death ([2]; 1 week of IOP elevation): 57%
number of TUNEL positive cells in the RGCL ([2]; 1 week of IOP elevation): 0.53±0.11 per retinal section
effect on number of TUNEL positive cells (in words) ([2]; elevated IOP retinas, 1 week, quercetin = co-administered with GGA): significantly reduced
effect on optic nerve injury / axonal damage (in words) ([3]; 5 weeks of IOP elevation): inhibited; also recorded: significantly ameliorated
optic nerve injury grade ([3]; 5 weeks of sustained IOP elevation, scale 1 (normal) to 5 (total degeneration)): 1.33±0.05
optic nerve injury (in words) ([3]; contralateral control eyes): no statistically significant optic nerve injury
optic nerve injury grade ([3]; contralateral control eyes, scale 1 to 5): 1.11±0.02
immunoreactivity against HSC70 in RGCs (immunoblot) [4]: no change in HSC70 expression; also recorded: no detectable difference
